Read-outs that look alike come from different tables or passages of the source.
Legend:
[1] = system: Enterococcus faecalis EFS.201 (ATCC 49452); type: cell-based
Procedure: (§1) Compounds according to Formula I were tested for antimicrobial activity against a panel of organisms. Aerobic organisms, Staphylococcus aureus, Enterococcus faecalis and E. faecium, were tested by broth microdilution according to Clinical and Laboratory Standards Institute (CLSI) document M7-A7 (Clinical and Laboratory Standards Institute. Methods for Dilution Antimicrobial Susceptibility Tests for Bacteria that Grow Aerobically; Approved Standard—Seventh Edition. CLSI document M7-A7 [ISBN 1-56238-587-9]. Clinical and Laboratory Standards Institute, 940 West Valley Road, Suite 1400, Wayne, Pa. 19087-1898 USA, 2006) with modifications as described below. Mueller Hinton Broth (MHBc) was supplemented with 50 mg/L calcium (equivalent to human physiological levels of calcium) and assay plates were incubated 18-20 hours at 37° C. with aeration (200 rpm).
(§2) In all cases the final concentration of dimethyl sulfoxide incubated with cells is less than or equal to 1%. For minimum inhibitory concentration (MIC) calculations, 2-fold dilutions of compounds were added to wells of a microtiter plate containing 5×10^5 bacteria in a final volume of 100 μL of media. Following incubation, (18-20 hours at 37° C. with aeration at 200 rpm) growth was confirmed visually by placing plates over a viewing apparatus (stand with a mirror underneath) and then the optical density (OD600) was measured using a SpectraMax 340PC^384 plate reader. Growth was defined as turbidity that could be detected with the naked eye or achieving minimum OD600of 0.1. MIC values (in μg/mL) were defined as the lowest concentration producing no visible turbidity.

[2] = system: Enterococcus faecalis EFS.312, Daptomycin resistant mutant (EFA); type: cell-based; details: MHBc with 50 mg/L calcium, 18-20 hours at 37° C.
Procedure: as §1, §2

[3] = system: Enterococcus faecium EFM.14 (ATCC 6569); type: cell-based
Procedure: as §1, §2

[4] = system: Enterococcus faecium EFM.384, Daptomycin resistant mutant (14-A); type: cell-based; details: MHBc with 50 mg/L calcium, 18-20 hours at 37° C.
Procedure: as §1, §2

[5] = system: Staphylococcus aureus SAU.278, Daptomycin resistant mutant (D10); type: cell-based; details: MHBc with 50 mg/L calcium, 18-20 hours at 37° C.
Procedure: as §1, §2

[6] = system: Staphylococcus aureus SAU.399 (ATCC 43300), Methicillin and Oxacillin Resistant; type: cell-based
Procedure: as §1, §2

[7] = system: Staphylococcus aureus SAU.42 (ATCC 29213); type: cell-based
Procedure: as §1, §2

[8] = MHBc with 50 mg/L calcium, 18-20 hours at 37° C.

SMILES	Efs201 MIC ([1]; ATCC 49452) [µg/mL]	Efs312 MIC [2] [µg/mL]	Efm14 MIC ([3]; ATCC 6569) [µg/mL]	Efm384 MIC [4] [µg/mL]	Sa278 MIC [5] [µg/mL]	Sa399 MIC ([6]; ATCC 43300) [µg/mL]	Sa42 MIC ([7]; ATCC 29213) [µg/mL]	C. diff MIC90 (Clostridium difficile) [µg/mL]	Efs201 MIC [1, 8] [µg/mL]	Efm14 MIC [3, 8] [µg/mL]	Sa399 MIC [6, 8] [µg/mL]	Sa42 MIC [7, 8] [µg/mL]
C[C@H](CC(=O)O)[C@@H]1NC(=O)[C@@H](CO)NC(=O)CNC(=O)[C@H](CC(=O)O)NC(=O)[C@@H](C)NC(=O)[C@H](CC(=O)O)NC(=O)[C@H](CCCN)NC(=O)CNC(=O)[C@@H](NC(=O)[C@H](CC(=O)O)NC(=O)[C@@H](CC(N)=O)NC(=O)[C@H](Cc2c[nH]c3ccccc23)NC(=O)C2(c3ccc(Cl)cc3)CCCCC2)[C@@H](C)OC(=O)[C@H](CC(=O)c2ccccc2N)NC1=O [Compound 72]	>32	>32	>32	>32	>32	>32	>32	32				
CCCCCCCc1csc(C(=O)N[C@@H](Cc2c[nH]c3ccccc23)C(=O)N[C@H](CC(N)=O)C(=O)N[C@@H](CC(=O)O)C(=O)N[C@@H]2C(=O)NCC(=O)N[C@@H](CCCN)C(=O)N[C@@H](CC(=O)O)C(=O)N[C@H](C)C(=O)N[C@@H](CC(=O)O)C(=O)NCC(=O)N[C@H](CO)C(=O)N[C@@H]([C@H](C)CC(=O)O)C(=O)N[C@@H](CC(=O)c3ccccc3N)C(=O)O[C@@H]2C)c1 [Compound 43, N-(4-heptylthiophene-2-carbonyl)-L-tryptophyl-D-asparaginyl-L-α-aspartyl-L-threonylglycyl-L-ornithyl-L-α-aspartyl-D-alanyl-L-α-aspartylglycyl-D-seryl-(3R)-3-methyl-L-α-glutamyl-(αS)-α,2-diamino-γ-oxobenzenebutanoic acid (13→4)-lactone]	1	32	1	16	1	0.5	0.125	2				
C[C@H](CC(=O)O)[C@@H]1NC(=O)[C@@H](CO)NC(=O)CNC(=O)[C@H](CC(=O)O)NC(=O)[C@@H](C)NC(=O)[C@H](CC(=O)O)NC(=O)[C@H](CCCN)NC(=O)CNC(=O)[C@@H](NC(=O)[C@H](CC(=O)O)NC(=O)[C@@H](CC(N)=O)NC(=O)[C@H](Cc2c[nH]c3ccccc23)NC(=O)CCCCCC2CCCCC2)[C@@H](C)OC(=O)[C@H](CC(=O)c2ccccc2N)NC1=O [Compound 26]	1	>32	2	16	2	0.5	1	2				
CCCCCCCCCCCCCCC(=O)N[C@@H](Cc1c[nH]c2ccccc12)C(=O)N[C@H](CC(N)=O)C(=O)N[C@@H](CC(=O)O)C(=O)N[C@@H]1C(=O)NCC(=O)N[C@@H](CCCN)C(=O)N[C@@H](CC(=O)O)C(=O)N[C@H](C)C(=O)N[C@@H](CC(=O)O)C(=O)NCC(=O)N[C@H](CO)C(=O)N[C@@H]([C@H](C)CC(=O)O)C(=O)N[C@@H](CC(=O)c2ccccc2N)C(=O)O[C@@H]1C [Compound 7]	0.25	4	0.5	4	2	0.5	1	16				
CCCCc1ccc(CC(=O)N[C@@H](Cc2c[nH]c3ccccc23)C(=O)N[C@H](CC(N)=O)C(=O)N[C@@H](CC(=O)O)C(=O)N[C@@H]2C(=O)NCC(=O)N[C@@H](CCCN)C(=O)N[C@@H](CC(=O)O)C(=O)N[C@H](C)C(=O)N[C@@H](CC(=O)O)C(=O)NCC(=O)N[C@H](CO)C(=O)N[C@@H]([C@H](C)CC(=O)O)C(=O)N[C@@H](CC(=O)c3ccccc3N)C(=O)O[C@@H]2C)cc1 [Compound 44]	8	>32	16	>32	4	4	4	8.00				
C[C@H](CC(=O)O)[C@@H]1NC(=O)[C@@H](CO)NC(=O)CNC(=O)[C@H](CC(=O)O)NC(=O)[C@@H](C)NC(=O)[C@H](CC(=O)O)NC(=O)[C@H](CCCN)NC(=O)CNC(=O)[C@@H](NC(=O)[C@H](CC(=O)O)NC(=O)[C@@H](CC(N)=O)NC(=O)[C@H](Cc2c[nH]c3ccccc23)NC(=O)/C=C/c2ccc(-c3ccccc3)cc2)[C@@H](C)OC(=O)[C@H](CC(=O)c2ccccc2N)NC1=O [Compound 71]		>32		>32	32			16	8	16	2	2
CCCCCCCCOc1ccc(-c2ccc(C(=O)N[C@@H](Cc3c[nH]c4ccccc34)C(=O)N[C@H](CC(N)=O)C(=O)N[C@@H](CC(=O)O)C(=O)N[C@@H]3C(=O)NCC(=O)N[C@@H](CCCN)C(=O)N[C@@H](CC(=O)O)C(=O)N[C@H](C)C(=O)N[C@@H](CC(=O)O)C(=O)NCC(=O)N[C@H](CO)C(=O)N[C@@H]([C@H](C)CC(=O)O)C(=O)N[C@@H](CC(=O)c4ccccc4N)C(=O)O[C@@H]3C)cc2)cc1 [Compound 64]		16		4	0.5			1	0.5	1	0.25	0.125
CCCCCCCCC(=O)N[C@@H](Cc1c[nH]c2ccccc12)C(=O)N[C@H](CC(N)=O)C(=O)N[C@@H](CC(=O)O)C(=O)N[C@@H]1C(=O)NCC(=O)N[C@@H](CCCN)C(=O)N[C@@H](CC(=O)O)C(=O)N[C@H](C)C(=O)N[C@@H](CC(=O)O)C(=O)NCC(=O)N[C@H](CO)C(=O)N[C@@H]([C@H](C)CC(=O)O)C(=O)N[C@@H](CC(=O)c2ccccc2N)C(=O)O[C@@H]1C [Compound 1]	32	>32	32	>32	>32	2	8					
CCCCCCCCCC(C)(C)C(=O)N[C@@H](Cc1c[nH]c2ccccc12)C(=O)N[C@H](CC(N)=O)C(=O)N[C@@H](CC(=O)O)C(=O)N[C@@H]1C(=O)NCC(=O)N[C@@H](CCCN)C(=O)N[C@@H](CC(=O)O)C(=O)N[C@H](C)C(=O)N[C@@H](CC(=O)O)C(=O)NCC(=O)N[C@H](CO)C(=O)N[C@@H]([C@H](C)CC(=O)O)C(=O)N[C@@H](CC(=O)c2ccccc2N)C(=O)O[C@@H]1C [Compound 12]	16	32	8	>32	8	2	4					
CCCCCCOc1ccc(/C=C/C(=O)N[C@@H](Cc2c[nH]c3ccccc23)C(=O)N[C@H](CC(N)=O)C(=O)N[C@@H](CC(=O)O)C(=O)N[C@@H]2C(=O)NCC(=O)N[C@@H](CCCN)C(=O)N[C@@H](CC(=O)O)C(=O)N[C@H](C)C(=O)N[C@@H](CC(=O)O)C(=O)NCC(=O)N[C@H](CO)C(=O)N[C@@H]([C@H](C)CC(=O)O)C(=O)N[C@@H](CC(=O)c3ccccc3N)C(=O)O[C@@H]2C)cc1 [Compound 42]				8	4			0.5	1	2	1	0.5
CCCCCCC1CCC(c2ccc(C(=O)N[C@@H](Cc3c[nH]c4ccccc34)C(=O)N[C@H](CC(N)=O)C(=O)N[C@@H](CC(=O)O)C(=O)N[C@@H]3C(=O)NCC(=O)N[C@@H](CCCN)C(=O)N[C@@H](CC(=O)O)C(=O)N[C@H](C)C(=O)N[C@@H](CC(=O)O)C(=O)NCC(=O)N[C@H](CO)C(=O)N[C@@H]([C@H](C)CC(=O)O)C(=O)N[C@@H](CC(=O)c4ccccc4N)C(=O)O[C@@H]3C)cc2)CC1 (single isomer, unassigned) [54 isomer II]	2		1			1	1	4				
